Measured values taken from patent US9695154B2, “Heteroaryl inhibitors of sumo activating enzyme” (MILLENNIUM PHARMACEUTICALS, INC., priority 2013, dated 2017).

Target: T1, recombinant human SAE enzyme (Homo sapiens, UniProt Q9UBT2)
T1 sequence (Q9UBT2 1-640): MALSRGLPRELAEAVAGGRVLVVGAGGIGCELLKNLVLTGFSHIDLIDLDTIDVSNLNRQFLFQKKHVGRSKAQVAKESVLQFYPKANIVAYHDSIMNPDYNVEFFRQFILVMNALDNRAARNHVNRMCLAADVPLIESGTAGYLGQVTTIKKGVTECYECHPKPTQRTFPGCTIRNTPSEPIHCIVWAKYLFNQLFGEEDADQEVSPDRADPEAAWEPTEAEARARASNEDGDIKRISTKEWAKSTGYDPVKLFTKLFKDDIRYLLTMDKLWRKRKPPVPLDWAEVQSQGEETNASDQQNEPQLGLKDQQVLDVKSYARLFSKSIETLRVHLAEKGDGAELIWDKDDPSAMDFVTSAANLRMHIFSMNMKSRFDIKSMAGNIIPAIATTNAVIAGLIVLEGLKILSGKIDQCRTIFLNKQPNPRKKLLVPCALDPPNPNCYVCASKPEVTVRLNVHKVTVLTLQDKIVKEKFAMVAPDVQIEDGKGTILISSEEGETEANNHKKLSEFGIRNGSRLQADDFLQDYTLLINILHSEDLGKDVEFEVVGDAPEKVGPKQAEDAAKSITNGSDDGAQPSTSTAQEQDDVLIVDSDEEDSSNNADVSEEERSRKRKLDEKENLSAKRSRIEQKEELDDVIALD
T1 sequence (Q9UBE0 1-346 partner): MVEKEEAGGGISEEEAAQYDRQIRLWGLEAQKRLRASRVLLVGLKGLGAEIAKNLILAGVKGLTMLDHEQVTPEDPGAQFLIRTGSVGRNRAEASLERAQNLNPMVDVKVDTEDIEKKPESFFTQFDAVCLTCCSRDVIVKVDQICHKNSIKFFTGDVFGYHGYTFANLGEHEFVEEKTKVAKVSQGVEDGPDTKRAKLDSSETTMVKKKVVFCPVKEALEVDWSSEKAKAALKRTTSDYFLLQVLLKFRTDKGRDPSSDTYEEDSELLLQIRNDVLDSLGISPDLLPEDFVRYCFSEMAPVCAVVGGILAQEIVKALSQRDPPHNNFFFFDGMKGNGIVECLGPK
Experiment: SAE HTRF Enzyme Assay
Type: biochemical
Details: for IC50: class symbols A-C; for inhibition at 0.111 µM: compound concentration 0.111 μM, read-out: Percent Inhibition
Procedure, shortened: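 Measured as FRET after a 2 h antibody step: SAE (0.11 nM) thioester transfer of Sumo-Flag to Ubc9-GST, 0.5 μM ATP, 24° C for 105 min, quenched with 20 mM EDTA. Output is IC50 or percent inhibition at a single concentration.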

Row | Compound | IC50 [nM] | inhibition at 0.111 µM [%]
1 | C[Si](C)(C)c1cccc(Cn2ccc(C(=O)c3cncnc3N[C@@H]3C[C@H](COS(N)(=O)=O)[C@@H](O)C3)n2)c1 [Compound I-137, [(1R,2S,4R)-2-hydroxy-4-{[5-({1-[3-(trimethylsilyl)benzyl]-1H-pyrazol-3-yl}carbonyl)pyrimidin-4-yl]amino}cyclopentyl]methyl sulfamate] | 10 to 100 | 78
2 | Cc1cc(C(=O)c2cncnc2N[C@@H]2C[C@H](COS(N)(=O)=O)[C@@H](O)[C@H]2O)nn1Cc1ccc(C(F)(F)F)o1 [Compound I-138, [(1R,2R,3S,4R)-2,3-Dihydroxy-4-({5-[(5-methyl-1-{[5-(trifluoromethyl)-2-furyl]methyl}-1H-pyrazol-3-yl)carbonyl]pyrimidin-4-yl}amino)cyclopentyl]methyl sulfamate] | < 10 | 99
3 | NS(=O)(=O)OC[C@H]1C[C@@H](Nc2ncncc2C(=O)c2nn(Cc3ccccc3)cc2Cl)[C@H](O)[C@@H]1O [Compound I-139, [(1R,2R,3S,4R)-4-({5-[(1-benzyl-4-chloro-1H-pyrazol-3-yl)carbonyl]pyrimidin-4-yl}amino)-2,3-dihydroxycyclopentyl]methyl sulfamate] | < 10 | 86
4 | NS(=O)(=O)OC[C@H]1C[C@@H](Nc2ncncc2C(=O)c2ccn(Cc3cccc(C(F)(F)F)c3)n2)C[C@@H]1O [Compound I-140, [(1R,2S,4R)-2-hydroxy-4-{[5-({1-[3-(trifluoromethyl)benzyl]-1H-pyrazol-3-yl}carbonyl)pyrimidin-4-yl]amino}cyclopentyl]methyl sulfamate] | < 10 | 98
5 | NS(=O)(=O)OC[C@H]1C[C@@H](Nc2ncncc2C(=O)c2ccn(Cc3ccc(F)c(Cl)c3)c2)[C@@H](F)[C@@H]1O [Compound I-141, {(1R,2R,3R,4R)-4-[(5-{[1-(3-chloro-4-fluorobenzyl)-1H-pyrrol-3-yl]carbonyl}pyrimidin-4-yl)amino]-3-fluoro-2-hydroxycyclopentyl}methy1 sulfamate] | < 10 | 99
6 | NS(=O)(=O)OC[C@H]1C[C@@H](Nc2ncncc2C(=O)c2ccn(Cc3ccccc3)n2)[C@H](O)[C@@H]1O [Compound I-142, [(1R,2R,3S,4R)-4-({5-[(1-Benzyl-1H-pyrazol-3-yl)carbonyl]pyrimidin-4-yl}amino)-2,3-dihydroxycyclopentyl]methyl sulfamate] | < 10 | 99
7 | NS(=O)(=O)OC[C@H]1C[C@@H](Nc2ncncc2C(=O)c2ccn(Cc3ccc(F)c(Br)c3)c2)[C@@H](F)[C@@H]1O [Compound I-143, {(1R,2R,3R,4R)-4-[(5-{[1-(3-bromo-4-fluorobenzyl)-1H-pyrrol-3-yl]carbonyl}pyrimidin-4-yl)amino]-3-fluoro-2-hydroxycyclopentyl}methyl sulfamate] | < 10 | 99
8 | NS(=O)(=O)OC[C@H]1C[C@@H](Nc2ncncc2C(=O)c2ccn(Cc3ccc4nccn4c3)n2)C[C@@H]1O [Compound I-144, {(1R,2S,4R)-2-hydroxy-4-[(5-{[1-(imidazo[1,2-a]pyridin-6-ylmethyl)-1H-pyrazol-3-yl]carbonyl}pyrimidin-4-yl)amino]cyclopentyl}methyl sulfamate] | < 10 | 97
9 | NS(=O)(=O)OC[C@H]1C[C@@H](Nc2ncncc2C(=O)c2ccn(CC3=CCCOC3)n2)C[C@@H]1O [Compound I-145, {(1R,2S,4R)-4-[(5-{[1-(5,6-dihydro-2H-pyran-3-ylmethyl)-1H-pyrazol-3-yl]carbonyl}pyrimidin-4-yl)amino]-2-hydroxycyclopentyl}methyl sulfamate] | 10 to 100 | 65
10 | NS(=O)(=O)OC[C@H]1C[C@@H](Nc2ncncc2C(=O)c2ccn(Cc3ccc(Cl)cc3F)n2)[C@H](O)[C@@H]1O [Compound I-146, {(1R,2R,3S,4R)-4-[(5-{[1-(4-chloro-2-fluorobenzyl)-1H-pyrazol-3-yl]carbonyl}pyrimidin-4-yl)amino]-2,3-dihydroxycyclopentyl}methyl sulfamate] | < 10 | 99
